The source of these data is PubChem BioAssay (NCI).

Holding throughout (assay): NCI anticancer screen, dose series, 48 h
Experiment [1] has as its system UO-31 renal.
Experiment [2] relates to SK-MEL-28 melanoma.
Experiment [3] relates to SK-MEL-5 melanoma.
The test system of experiment [4] is UACC-257 melanoma.
The subject of experiment [5] is MALME-3M melanoma.
For experiment [6], the system named is SN12C renal.
Experiment [7] deals with SR leukemia.
Experiment [8] deals with U251 CNS.
The subject of experiment [9] is A549 NSCLC.
Experiment [10] concerns SW-620 colon.
Experiment [11] relates to MOLT-4 leukemia.
In experiment [12] the test system is HCC-2998 colon.

Values joined by “and” are separate entries in the source; they are usually repeats but may differ in a detail not shown here. Identical values can stand only once.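 Step 1: Grow cells in 96-well plates. Step 2: Expose to compound for 48 hours at 5 concentrations. Step 3: Interpolate endpoints linearly; if unreached, use highest concentration. At the GI50, growth is halved. The concentration for full growth arrest is given as TGI.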

With `CCn1c(=O)c2c3ccc(O)cc3[nH]c2c2ccc(O)cc21`, the TGI in experiment [1], in [2], in experiment [3], in experiment [4], in experiment [5] and in [6] was over 100 µM in each case. In addition, the TGI in experiment [7], in experiment [8], in [9], in experiment [10], in [11] and in experiment [12] was over 100 µM in each case.
As for `O=C(N/N=C/c1cc(Cl)cc(Cl)c1[O-])c1ccccc1O.O=C(N/N=C/c1cc(Cl)cc(Cl)c1[O-])c1ccccc1O.[Fe+2]`, the TGI in experiment [1] was 48.7 µM; in experiment [2], 40.6 µM; in [4], 85.8 µM; in experiment [5], 61.9 µM; in experiment [7], 35.8 µM; in experiment [8] it was 22.6 µM. Also, the TGI in [9] was 35.2 µM; in [10], 48.2 µM; in [11], over 100 µM; in experiment [12] it was 26.2 µM. Moreover, the GI50 in experiment [5] was 22 µM; in [9], 10.2 µM; in [11], 19.2 µM.
For the molecule `O=c1[nH]c(Br)nc2n[nH]nc12`, the TGI in experiment [1], in experiment [3], in [4], in experiment [5], in experiment [6] and in experiment [7] was over 100 µM throughout. In addition, the TGI in experiment [8] is over 100 µM; in experiment [9], over 100 µM; in experiment [10], over 100 µM; in experiment [11] it was 44.3 µM; in experiment [12], over 100 µM.
With `CC(=O)OC1(C)CC(C)C(=O)C(C(O)CC2CC(=O)NC(=O)C2)C1` (stereo not given), the TGI in experiment [1] is 0.643 µM and 0.389 µM; in [2], 0.134 µM and 0.688 µM; in experiment [3], 0.147 µM and 0.023 µM; in experiment [4], 0.348 µM and 0.145 µM; in experiment [5], 0.375 µM and 0.753 µM; in experiment [8], 21.3 µM. In addition, the TGI in experiment [9] was 0.936 µM and 3.32 µM; in [10], 0.129 µM; in [11] it was 0.316 µM; in [12], 0.0409 µM.
For the molecule `O=[N+]([O-])c1cc(C(F)(F)F)cc2c1SC1=Nc3ccccc3CN12`, the TGI in experiment [1], in experiment [2], in experiment [3], in experiment [4], in [5] and in [6] was over 100 µM in each case. For the same molecule, the TGI in experiment [8], in experiment [9], in experiment [10], in [11] and in experiment [12] was over 100 µM each time.
`C[N+]1(C)C/C(=C\C=C\c2ccccc2)C(=O)/C(=C/C=C/c2ccccc2)C1`: the TGI was over 100 µM in experiment [1]; 17 µM in [2]; 25.2 µM in experiment [3]; 26 µM in experiment [4]; 40.4 µM in experiment [5]; 62.5 µM in experiment [6]. Also, the TGI was 23.9 µM in experiment [7]; 19.2 µM in experiment [8]; over 100 µM in experiment [9]; 41.5 µM in experiment [10]; 16.6 µM in experiment [11]; 34.2 µM in experiment [12].
Turning to `CC(=O)C(C(=O)C(=O)Nc1cc(Cl)c(Cl)cc1Cl)c1csc(N)n1` (stereo not given), the TGI in experiment [1], in experiment [2], in experiment [3], in experiment [4], in [6] and in experiment [7] was over 100 µM each time. Moreover, the TGI in experiment [8], in experiment [9], in [10], in experiment [11] and in experiment [12] was over 100 µM in each case.
Consider `NCCNc1ccc(NCCN)c2c1C(=O)c1c(O)ccc(O)c1C2=O`, for which the GI50 in experiment [1] was 0.0579 µM; in experiment [3], 0.0709 µM; in experiment [5] it was 0.112 µM; in experiment [8] it was 0.0238 µM; in experiment [10] it was 0.0288 µM; in [12], 0.147 µM. Moreover, the TGI in experiment [1] was 0.823 µM and 0.374 µM; in experiment [2] it was 2.28 µM and 2.15 µM; in experiment [3] it was 1.47 µM and 1.11 µM; in experiment [4], 3.11 µM and 4.1 µM; in [5], 1.46 µM and 1.34 µM; in [6], 0.0799 µM and 0.0776 µM. For the same molecule, the TGI in [7] is 0.0171 µM; in experiment [8], 0.845 µM and 0.137 µM; in experiment [9], 0.223 µM and 0.393 µM; in [10], 1.32 µM and 1.12 µM; in [11], 0.216 µM; in experiment [12], 1.24 µM.
Take `NCCCC(N)(C(=O)O)C(F)F` (stereo not given): the TGI in experiment [1], in experiment [2], in experiment [3], in experiment [4], in [5] and in [6] was over 5000 µM in each case. The TGI in experiment [8], in [9], in experiment [10], in experiment [11] and in [12] was over 5000 µM throughout.
For `O=C(N/N=C/c1cc(Cl)cc(Cl)c1[O-])c1ccccc1O.O=C(N/N=C/c1cc(Cl)cc(Cl)c1[O-])c1ccccc1O.[Cu+2]`, the TGI was determined as 1.41 µM in experiment [1]; 8.79 µM in experiment [2]; 0.966 µM in experiment [3]; 0.914 µM in experiment [4]; 1.38 µM in [5]; 0.511 µM in [7]. Besides, the TGI in [8] was determined as 1.34 µM; in [9] it was 1.65 µM; in experiment [10], 1.97 µM; in [11], 2.12 µM; in experiment [12] it was 1.46 µM. The GI50 in experiment [5] is 0.367 µM; in [9], 0.385 µM; in [11], 0.285 µM.
Regarding `NC1C2C=CC(C2)C1C(=O)O` (stereo not given), the TGI in [1], in experiment [2], in experiment [3], in experiment [5], in [6] and in [8] was over 100 µM throughout. In addition, the TGI in experiment [9], in experiment [10] and in experiment [11] was over 100 µM in each case.
In the case of `COc1cc2c(cc1OC)-c1cc3cc(OC)c(OC)cc3c(C)[n+]1CC2` (tested in a mixture with another compound), the TGI was over 100 µM in experiment [1]; over 100 µM in experiment [2]; over 100 µM in [3]; 46.3 µM in [4]; over 100 µM in experiment [5]; over 100 µM in [6]. Besides, the TGI in experiment [7] was […]; in experiment [8] it was over 100 µM; in experiment [9], over 100 µM; in experiment [10], over 100 µM; in [11] it was 48.1 µM; in experiment [12], 62.5 µM.
As for `CCN(CC)CCCNC(=O)c1ccccc1Nc1c(Cl)cccc1Cl`, the TGI in experiment [1] came to 20.3 µM; in experiment [2] it was 9.51 µM; in [3], 10.7 µM; in [4] it was 7.45 µM; in [6] it was 27.2 µM; in experiment [7], 27.6 µM. In addition, the TGI is 31.5 µM in experiment [9], 30.1 µM in experiment [10], 27.9 µM in [11] and 21.3 µM in experiment [12].
For the molecule `Oc1ccccc1CNCc1ccccc1O`, the TGI in experiment [1], in experiment [2], in experiment [3], in experiment [4], in experiment [5] and in experiment [6] was over 100 µM throughout. Besides, the TGI was over 100 µM in experiment [8]; over 100 µM in [9]; over 100 µM in experiment [10]; over 100 µM in [11]; 36.7 µM in experiment [12].
On to `Nc1n[nH]c(N)n1`, for which the TGI is over 10000 µM in experiment [1]; over 10000 µM in experiment [2]; over 10000 µM in experiment [3]; over 9050 µM in [4]; over 10000 µM in [5]; over 8900 µM in experiment [6]. In addition, the TGI in experiment [7] was 9840 µM; in experiment [8] it was over 10000 µM; in experiment [9], over 10000 µM; in experiment [10], over 10000 µM; in experiment [11], over 10000 µM; in experiment [12], over 10000 µM.
Take `O=C(N/N=C/c1cc(Cl)cc(Cl)c1[OH2+])c1ccncc1.O=S(=O)([O-])[O-].[Fe+2]`: the TGI in [1] is 31.1 µM; in [2], over 100 µM; in [3], over 100 µM; in experiment [4] it was 41.7 µM; in experiment [5], 29.3 µM; in [6] it was 79.3 µM. Also, the TGI in experiment [7] is 54.6 µM; in [9], 53.9 µM; in experiment [10] it was over 100 µM; in [11], 40 µM; in experiment [12], over 100 µM.
With `COc1cccc2c1C(=O)c1c(O)c3c(c(O)c1C2=O)CC(O)(C(C)=O)CC3OC1OC(COC(C)=O)C(OC(C)=O)C(OC(C)=O)C1OC(C)=O` (stereo not given), the TGI was over 100 µM in [1]; over 100 µM in [2]; over 100 µM in experiment [3]; 36.6 µM in experiment [4]; over 100 µM in experiment [5]; over 100 µM in experiment [6]. Moreover, the TGI in [7] is 25.8 µM; in [8], 27.5 µM; in experiment [9], over 100 µM; in [10], over 100 µM; in [11], 36.9 µM.
For `CCCCCC1CC(C(C)=O)CN1c1ccc(F)cc1` (stereo not given), the TGI in experiment [1] is over 100 µM; in [2] it was over 100 µM; in experiment [3], 38.3 µM; in [4], over 100 µM; in experiment [5], over 100 µM; in [6], over 100 µM. Further, the TGI was over 10 µM in experiment [7]; over 100 µM in experiment [8]; over 100 µM in experiment [9]; over 100 µM in experiment [10]; over 100 µM in experiment [12].
